The target in this assay is Hematopoietic prostaglandin D synthase (Homo sapiens, UniProt O60760). The assay can be described thus: Binding affinity to full length recombinant human N-terminal His6-tagged H-PGDS expressed in Escherichia coli BL21(DE3) by SPR analysis. In general terms: SPR reads the build-up and loss of mass on a sensor chip optically.

The structures appear in SMILES notation.

Sequence of Hematopoietic prostaglandin D synthase (O60760 whole entry): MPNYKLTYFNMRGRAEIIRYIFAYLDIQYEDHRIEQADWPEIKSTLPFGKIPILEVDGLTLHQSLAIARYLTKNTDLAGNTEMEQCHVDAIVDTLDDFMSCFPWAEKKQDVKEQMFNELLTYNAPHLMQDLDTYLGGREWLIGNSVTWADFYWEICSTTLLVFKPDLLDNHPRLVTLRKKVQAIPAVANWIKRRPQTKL

The term Kd denotes a measure of binding affinity in units of concentration. Regarding `O=C(Nc1ccc(N2CCC(C(=O)N3CCOCC3)CC2)cc1)c1cnc(Oc2ccccc2)nc1`, the Kd turned out to be 0.37 nM.
For `O=C(Nc1ccc(N2CCCC2=O)cc1)c1cnc(-c2ccccn2)nc1`, the Kd came out at 0.14 nM.

The values are drawn from ChEMBL document CHEMBL4229539, “Characterization of crystal water molecules in a high-affinity inhibitor and hematopoietic prostaglandin D synthase complex by interaction energy studies” (Bioorg Med Chem, 2018).
